# Read-outs that look alike come from different tables or passages of the source.
# Assay: In vivo food effects study in healthy subjects (Test Example 3)
# Parameters: species or system human (healthy male subjects)
# Conditions: after Test Formulation 300 mg single oral; for AUC—% Extrap of SNAC / CLz/F of SNAC / λz of SNAC: healthy male subjects, Mean ± SD; for AUC(0-t) / AUC(0-inf) / Cmax / MRT last / MRT inf / Vd/F / half-life / Tmax: male, human, plasma, po, 300 mg; for AUC(0-t): read-out: AUC0-t of SNAC; for AUC(0-inf): read-out: AUC0-∞ of SNAC; for Cmax: read-out: Cmax of SNAC; for MRT last: read-out: MRT0-t of SNAC; for MRT inf: read-out: MRT0-∞ of SNAC; for Vd/F: read-out: Vz/F of SNAC; for half-life: read-out: t1/2 of SNAC (converted); for Tmax: read-out: Tmax of SNAC
# Description: To study the effect of food on the pharmacokinetic characteristics of abiraterone acetate tablets through a single oral administration of abiraterone acetate tablets under fasting state or after meal, or a single oral administration of abiraterone acetate tablets (Zytiga®) produced by Patheon Inc. under modified fasting state, in healthy subjects.
# A single-center, randomized, open-label, three-period, self-controlled crossover trial design was applied. A total of 24 healthy male subjects were planned to be enrolled in the study. The washout period between each dose group was seven days. Blood samples were collected at a series of time points, and safety test was performed. The HPLC-MS/MS method was used to determine the plasma concentration of abiraterone and SNAC at different time points after drug administration. The non-compartmental model was used to calculate the pharmacokinetic parameters, and statistical analysis was performed.
# The subjects were orally administered a single dose of the test formulation (T) under fasting state at a dose of 300 mg (150 mg×2 tablets), a single dose of the test formulation (T) of 300 mg abiraterone acetate tablets (I) (150 mg×2 tablets) after a high-fat meal (the total calories were approximately 800˜1,000 kcal, wherein approximately 50% of the calories were derived from fat; the test meal of each test cycle for the postprandial administration should be consistent; a high-fat meal was given 30 minutes before drug administration and should be finished within 30 minutes), or a single dose of the reference preparation of 1,000 mg abiraterone acetate tablets (Zytiga®) (250 mg×4 tablets) under modified fasting state (a medium-fat meal was given two hours before drug administration and one hour after drug administration; the total calories were approximately 450 kcal wherein 30% of the calories were derived from fat; the meal should be finished within 30 minutes), with 240 mL of warm water, in the morning on the day of drug administration for each cycle. Liquid was prohibited before administration and one hour after drug administration, and a standard lunch and dinner (a standardized light diet) were given approximately 4 and 10 hours after drug administration. The drug was swallowed whole instead of being sucked or chewed.
# Test Formulation (T): Abiraterone acetate tablets (Formulation 5), specification: 150 mg;
# Reference Preparation (R): Abiraterone Acetate Tablets; produced by Patheon Inc.; trade name: Zytiga®; specification: 250 mg.
# The PKPS was used for the statistical analysis of pharmacokinetic parameters.
# (§1) With the dosing order, dosing cycle and dosing regimen as fixed effects, the subjects were included as random effects in the linear mixed model as random effects. The least-squares mean ratio of Cmax, AUC0-t and AUC0-∞ of abiraterone in plasma after oral administration of the test formulation T under a high-fat meal or fasting states, and its 90% confidence interval were calculated.
# as §1, with “dosing orders,” for “dosing order,”, “mixed model.” for “mixed model as random effects.”, “meal and oral administration of the reference formulation R under modified” for “meal or”
# [1] = after a high-fat meal, N = 24, Mean ± SD
# [2] = fasting state, N = 23, Mean ± SD
compound,measurement,setting,value
"O=C([O-])CCCCCCCNC(=O)c1ccccc1O.[Na+] [SNAC, sodium 8-(salicylamido)caprylate]",AUC—% Extrap of SNAC,"after a high-fat meal, N = 24",0.46 ± 0.63%
same,CLz/F of SNAC,"after a high-fat meal, N = 24",198.03 ± 28.78 mL/h
same,λz of SNAC,"after a high-fat meal, N = 24",0.27 ± 0.12 h⁻¹
same,AUC—% Extrap of SNAC,"fasting state, N = 23",0.66 ± 0.54%
same,CLz/F of SNAC,"fasting state, N = 23",255.02 ± 72.16 mL/h
same,λz of SNAC,"fasting state, N = 23",0.19 ± 0.08 h⁻¹
same,AUC(0-t),[1],1540 ± 247 ng·h/mL
same,AUC(0-inf),[1],1550 ± 245 ng·h/mL
same,Cmax,[1],1120 ± 574 ng/mL
same,MRT last,[1],2.28 ± 0.99 h
same,MRT inf,[1],2.36 ± 1 h
same,Vd/F,[1],0.87 ± 0.362 L
same,half-life,[1],3.06 ± 1.19 h
same,Tmax,"after a high-fat meal, N = 24, median",1.13 h
same,AUC(0-t),[2],1250 ± 305 ng·h/mL
same,AUC(0-inf),[2],1250 ± 306 ng·h/mL
same,Cmax,[2],1580 ± 697 ng/mL
same,MRT last,[2],1.59 ± 1.35 h
same,MRT inf,[2],1.74 ± 1.38 h
same,Vd/F,[2],1.62 ± 0.949 L
same,half-life,[2],4.22 ± 1.71 h
same,Tmax,"fasting state, N = 23, median",0.5 h

# — patent US11801252B2, “Pharmaceutical composition” (Jiangsu Hengrui Medicine Co., Ltd., priority 2021, dated 2023)
